System: MCF7 complex spheroid growth, % test/control
Assay: Anticancer human tumor MCF7 cell line growth inhibition [Asc];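 further: spheroids exposed to compounds for 7 days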;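 on viability, T/C: 100% = DMSO vehicle control wells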
Details: for IC50: curve of first compound; for viability, T/C: stronger effect = lower value
Method in brief: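 Concentration series start at each agent's clinical Cmax, or at 10 microM when none is established, and drop in half-log steps; agents are applied alone or together to complex spheroids built with HUVEC and hMSC.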

With `O=C(c1cc(Cc2n[nH]c(=O)c3ccccc23)ccc1F)N1CCN(C(=O)C2CC2)CC1` + CCN1C(C(=O)NC23CCC(C(=O)O)(CC2)CC3)C(c2cccc(Cl)c2F)C2(C(=O)Nc3cc(Cl)ccc32)C12CCCCC2 the IC50 (second compound 0.00949 µM) was > 10000 nM, the IC50 (second compound 0.03 µM) was > 10000 nM and the IC50 (second compound 0.0949 µM) was < 31.6 nM. For the same compound, the IC50 (second compound 0.3 µM) was < 31.6 nM, the IC50 (second compound 0.949 µM) was < 31.6 nM and the IC50 (second compound 3 µM) was < 31.6 nM. For the same compound, the viability, T/C (second compound 0.00949 µM, first compound 0.0316 µM) was 133%, the viability, T/C (second compound 0.00949 µM, first compound 0.1 µM) was 96.8% and the viability, T/C (second compound 0.00949 µM, first compound 0.316 µM) was 107%. The viability, T/C (second compound 0.00949 µM, first compound 1 µM) was 106%, the viability, T/C (second compound 0.00949 µM, first compound 3.16 µM) was 92.3% and the viability, T/C (second compound 0.00949 µM, first compound 10 µM) was 73%. It also gave a viability, T/C (second compound 0.03 µM, first compound 0.0316 µM) of 85.6%, a viability, T/C (second compound 0.03 µM, first compound 0.1 µM) of 81.5% and a viability, T/C (second compound 0.03 µM, first compound 0.316 µM) of 87%. The viability, T/C (second compound 0.03 µM, first compound 1 µM) was 86%, the viability, T/C (second compound 0.03 µM, first compound 3.16 µM) was 74.2% and the viability, T/C (second compound 0.03 µM, first compound 10 µM) was 62.2%. It also gave a viability, T/C (second compound 0.0949 µM, first compound 0.0316 µM) of 46.7%, a viability, T/C (second compound 0.0949 µM, first compound 0.1 µM) of 47.4% and a viability, T/C (second compound 0.0949 µM, first compound 0.316 µM) of 51.4%. The viability, T/C (second compound 0.0949 µM, first compound 1 µM) was 45.5%, the viability, T/C (second compound 0.0949 µM, first compound 3.16 µM) was 38.9% and the viability, T/C (second compound 0.0949 µM, first compound 10 µM) was 44.5%. The viability, T/C (second compound 0.3 µM, first compound 0.0316 µM) was 34.3%, the viability, T/C (second compound 0.3 µM, first compound 0.1 µM) was 30.3% and the viability, T/C (second compound 0.3 µM, first compound 0.316 µM) was 32.8%. For the same compound, the viability, T/C (second compound 0.3 µM, first compound 1 µM) was 30.6%, the viability, T/C (second compound 0.3 µM, first compound 3.16 µM) was 29.4% and the viability, T/C (second compound 0.3 µM, first compound 10 µM) was 29%. It also gave a viability, T/C (second compound 0.949 µM, first compound 0.0316 µM) of 21%, a viability, T/C (second compound 0.949 µM, first compound 0.1 µM) of 22.7% and a viability, T/C (second compound 0.949 µM, first compound 0.316 µM) of 21.5%. For the same compound, the viability, T/C (second compound 0.949 µM, first compound 1 µM) was 21.6%, the viability, T/C (second compound 0.949 µM, first compound 3.16 µM) was 25.7% and the viability, T/C (second compound 0.949 µM, first compound 10 µM) was 19.6%. It also gave a viability, T/C (second compound 3 µM, first compound 0.0316 µM) of 13.7%, a viability, T/C (second compound 3 µM, first compound 0.1 µM) of 16.2% and a viability, T/C (second compound 3 µM, first compound 0.316 µM) of 14.4%. The viability, T/C (second compound 3 µM, first compound 1 µM) was 14.9%, the viability, T/C (second compound 3 µM, first compound 3.16 µM) was 18.9% and the viability, T/C (second compound 3 µM, first compound 10 µM) was 15.9%.
`C#Cc1c(F)ccc2cc(O)cc(-c3ncc4c(N5CC6CCC(C5)N6)nc(OCC56CCCN5CC(F)C6)nc4c3F)c12` (centres undefined) + CNC(C)C(=O)NC1CN(S(=O)(=O)c2cccc(S(=O)(=O)N3CCC4CCC(C(=O)NC(c5ccccc5)c5ccccc5)N4C(=O)C(NC(=O)C(C)NC)C3)c2)CCC2CCC(C(=O)NC(c3ccccc3)c3ccccc3)N2C1=O was tested, and the IC50 (second compound 0.00316 µM) was < 31.6 nM, the IC50 (second compound 0.01 µM) was < 31.6 nM and the IC50 (second compound 0.0316 µM) was < 31.6 nM. For the same compound, the IC50 (second compound 0.1 µM) was < 31.6 nM, the IC50 (second compound 0.316 µM) was < 31.6 nM and the IC50 (second compound 1 µM) was < 31.6 nM. For the same compound, the viability, T/C (second compound 0.00316 µM, first compound 0.0316 µM) was 41.9%, the viability, T/C (second compound 0.00316 µM, first compound 0.1 µM) was 44.3% and the viability, T/C (second compound 0.00316 µM, first compound 0.316 µM) was 16.3%. For the same compound, the viability, T/C (second compound 0.00316 µM, first compound 1 µM) was 18.9%, the viability, T/C (second compound 0.00316 µM, first compound 3.16 µM) was 11.3% and the viability, T/C (second compound 0.00316 µM, first compound 10 µM) was 2.37%. For the same compound, the viability, T/C (second compound 0.01 µM, first compound 0.0316 µM) was 19%, the viability, T/C (second compound 0.01 µM, first compound 0.1 µM) was 12.6% and the viability, T/C (second compound 0.01 µM, first compound 0.316 µM) was 12.2%. It also gave a viability, T/C (second compound 0.01 µM, first compound 1 µM) of 11.8%, a viability, T/C (second compound 0.01 µM, first compound 3.16 µM) of 9.39% and a viability, T/C (second compound 0.01 µM, first compound 10 µM) of 4.11%. For the same compound, the viability, T/C (second compound 0.0316 µM, first compound 0.0316 µM) was 11.6%, the viability, T/C (second compound 0.0316 µM, first compound 0.1 µM) was 12.4% and the viability, T/C (second compound 0.0316 µM, first compound 0.316 µM) was 10.9%. It also gave a viability, T/C (second compound 0.0316 µM, first compound 1 µM) of 11.4%, a viability, T/C (second compound 0.0316 µM, first compound 3.16 µM) of 9.52% and a viability, T/C (second compound 0.0316 µM, first compound 10 µM) of 3.7%. The viability, T/C (second compound 0.1 µM, first compound 0.0316 µM) was 12.5%, the viability, T/C (second compound 0.1 µM, first compound 0.1 µM) was 10.4% and the viability, T/C (second compound 0.1 µM, first compound 0.316 µM) was 11.9%. It also gave a viability, T/C (second compound 0.1 µM, first compound 1 µM) of 11.2%, a viability, T/C (second compound 0.1 µM, first compound 3.16 µM) of 11.4% and a viability, T/C (second compound 0.1 µM, first compound 10 µM) of 3.67%. It also gave a viability, T/C (second compound 0.316 µM, first compound 0.0316 µM) of 12.8%, a viability, T/C (second compound 0.316 µM, first compound 0.1 µM) of 12.9% and a viability, T/C (second compound 0.316 µM, first compound 0.316 µM) of 12.2%. The viability, T/C (second compound 0.316 µM, first compound 1 µM) was 10.8%, the viability, T/C (second compound 0.316 µM, first compound 3.16 µM) was 11.4% and the viability, T/C (second compound 0.316 µM, first compound 10 µM) was 2.21%. It also gave a viability, T/C (second compound 1 µM, first compound 0.0316 µM) of 13.9%, a viability, T/C (second compound 1 µM, first compound 0.1 µM) of 12.2% and a viability, T/C (second compound 1 µM, first compound 0.316 µM) of 13%. It also gave a viability, T/C (second compound 1 µM, first compound 1 µM) of 10.6%, a viability, T/C (second compound 1 µM, first compound 3.16 µM) of 8.64% and a viability, T/C (second compound 1 µM, first compound 10 µM) of 1.87%.

From PubChem BioAssay AID1963445 (Molecular Pharmacology Branch, DTP, NCI, 2024)
